tested on: Plasmodium falciparum; test: GSK_TCMDC: Inhibition of Plasmodium falciparum 3D7 in whole erythrocytes, using parasite LDH activity as an index of growth.; type: functional, organism-based; conditions: not given

SMILES | XC50
COc1ccc(C=CC(=O)NC2CCC(CN3CCC(c4c[nH]c5ccccc45)CC3)CC2)cc1 (centres undefined) | 807 nM
CC1=C(C(=O)NC2CCC(CN3CCC(c4c[nH]c5ccccc45)CC3)CC2)Cc2ccccc21 (centres undefined) | 833 nM

same assay, conditions: Plasmodium falciparum, 3D7

SMILES | XC50
Fc1ccc2[nH]c(-c3ccc(-c4ccc(CNCCc5cccnc5)cc4)s3)nc2c1 | 236 nM
Cn1c(N)c(C(=O)CSc2nnc(-c3cccs3)n2Cc2ccccc2)c(=O)n(C)c1=O | 792 nM
CCN(CC)CCOC(=O)c1ccc(NC(=O)c2cc(-c3ccc(C)cc3)nc3ccccc23)cc1 | 779 nM
N=C1NC(=O)C(=Cc2cn(-c3ccccc3)nc2-c2cccc(S(=O)(=O)N3CCCC3)c2)S1 | 1140 nM
Cc1cc(Nc2ccnc(-c3ccc(Cl)cc3)n2)ccn1 | 1040 nM
Cc1ccc(C(=O)Nc2cccc(CN3CCCN(Cc4ccc(O)cc4)CC3)c2)cc1 | 1090 nM
Cc1ccc(C)c(NC(=O)NCCNc2ccnc(Nc3ccc(F)cc3)n2)c1 | 817 nM
CC(CCON1C(N)=NC(N)=NC1(C)C)c1ccc(Cl)cc1 (centres undefined) | 3.2 nM
CC(C)C[C@H](NC(=O)c1ccc(OCCN2CCOCC2)cc1)C(=O)N[C@H](/C=N/NC(=O)c1ccccc1)CCc1ccccc1 | 62.1 nM
CC1CCCCN1S(=O)(=O)c1ccc(NC(=O)c2cc(-c3ccccc3O)n[nH]2)cc1 (centres undefined) | 756 nM
CN(C)CCOc1ccc(-c2cc(-c3ccncc3)c(-c3ccc(Cl)c(O)c3)o2)cc1 | 214 nM
COc1ccc(-c2cccc(NC(=O)c3cccc(C#N)c3)c2)cc1CN1CCNCC1 | 728 nM
O=C1CCCN1CCCNCc1ccc(-c2ccc(-c3nc4cc(F)ccc4[nH]3)s2)cc1 | 896 nM
Cc1noc(C)c1S(=O)(=O)N(C)Cc1ccc(-c2ccc(Cl)cc2)o1 | 362 nM
O=S(=O)(NCCN1CCCC1)c1ccc(-c2cccc(CNCc3ccc(F)cc3)c2)cc1F | 787 nM
S=C(NCCN1CCOCC1)Nc1ccccc1 | 1020 nM
CC(C)CCNC(=N)Nc1ccc(OCCCOc2ccc(NC(=N)NCCC(C)C)cc2)cc1 | 200 nM
O=S(=O)(c1cc(Cl)c(Cl)cc1Cl)N1CCCCC(c2ccc(C(F)(F)F)cc2)=N1 | 205 nM
Fc1cccc(C=NNc2ccnc3cc(Cl)ccc23)c1 | 528 nM
O=C(NC1CC1)c1ccc(N2CCC(c3ccccc3)CC2)nc1 | 1110 nM
FC(F)(F)c1cccnc1N1CCC(Nc2nc3cc(Cl)ccc3[nH]2)CC1 | 646 nM
CN(C)CCNC(=O)c1cc2c(-c3ccc(Cl)cc3)nn(C)c2s1 | 665 nM
Cc1ccc(CN2CCN(Cc3cccc(NC(=O)c4cccs4)c3)CC2)cc1C | 1030 nM
O=C(Nc1ccc(Cn2nc(Cl)c(N3CCCNCC3)cc2=O)cc1)Nc1ccc(-c2ccccc2)cc1 | 843 nM
CC(Cc1ccc(CN2CCN(Cc3ccccc3)CC2)cc1)NCC(O)c1cccc(C(F)(F)F)c1 (centres undefined) | 893 nM

SMILES | XC50
CC(C)(CNC(=O)C1CCN(CCOc2ccc(Cl)cc2)CC1)c1nc(-c2ccc(Cl)c(O)c2)c(-c2ccncc2)[nH]1 | 709 nM
Oc1ccc(-c2ccccc2)cc1CN1CCCCCC1 | 1170 nM
Cc1cc2nc(-c3ccc(OCC(=O)NCc4ccc(C(C)(C)C)cc4)cc3)[nH]c2cc1C | 1060 nM
Cc1cc(C(=O)Nc2ccc(-c3ccccc3)cc2)no1 | 694 nM
CC(=O)Nc1ccc(S(=O)(=O)N2CCN(c3nc(NC4CCCC4)c4ccccc4n3)CC2)cc1 | 1030 nM
COc1ccc2ncc(F)c(CCN3C[C@H](CNCc4cc(C#N)c5c(c4)OCCO5)[C@H](O)C3)c2n1 | 582 nM
CN1CCC(NCc2ccc(-c3cccc(-c4nc5ccccc5[nH]4)c3)cc2)CC1 | 126 nM
Cc1[nH]c2c(C)cc(NS(C)(=O)=O)cc2c1C1CCN(CC2CCN(C(=O)/C=C/c3ccc(Cl)c(Cl)c3)CC2)CC1 | 241 nM
N#Cc1ccc(CN2CCC(Oc3ccc(NC(=O)c4cccs4)cc3Cl)C2)cc1 (centres undefined) | 402 nM
COC(=O)c1cccc(CNCc2cccc(-c3cccc(-c4nc5cc(F)ccc5[nH]4)c3)c2)c1 | 129 nM
O=C(Nc1ccc(OC2CCN(Cc3ccsc3)C2)c(Cl)c1)c1ccc2ncccc2c1 (centres undefined) | 966 nM
Cc1csc(-c2nc(NCc3cccnc3)ncc2-c2ccsc2)n1 | 1190 nM
CNC(=O)c1ccccc1Nc1nc(Nc2ccc(N3CCOCC3)cc2)ncc1Cl | 727 nM
CN(C)CCNCc1cccc(-c2cccc(-c3nc4ccccc4[nH]3)c2)c1 | 766 nM
O=c1cc(NCCCNCc2cc(F)cc(C(F)(F)F)c2)[nH]c2ccccc12 | 1200 nM
COc1ccc(Nc2nc(=Nc3ccccc3)nc(NN=Cc3cc(Cl)ccc3O)[nH]2)cc1 | 647 nM
CC(C)N1CCN(CCCCNc2c3ccccc3nc3ccccc23)CC1 | 540 nM
Cc1ccc(Nc2nc(N/N=C/c3cccc([N+](=O)[O-])c3)nc(Nc3ccccc3)n2)c(C)c1 | 626 nM
Cc1cccc2nc(-c3ccc(-c4ccc(NC(=O)Nc5ccc(Cl)c(Cl)c5)cc4)cc3)[nH]c12 | 826 nM
COc1ccc(C=CC(=O)NC2CCC(CN3CCC(c4c[nH]c5ccccc45)CC3)CC2)cc1 (centres undefined) | 782 nM
CN(C)c1ccc(-c2csc(C(=O)NCC3CCN(CCC(C)(C)C)C3)c2)cc1 (centres undefined) | 1500 nM
COc1cc(Nc2nccc(-c3c(-c4cccc(NC(=O)c5c(F)cccc5F)c4)nn4ncccc34)n2)cc(OC)c1OC | 32.6 nM
Oc1cc(NC[C@@H]2CCC[C@@H]2NCc2ccc(Cl)c(Cl)c2)nc2ccccc12 | 602 nM
O=C(CCn1cncn1)N1CCCC(c2[nH]c3ccccc3c2-c2ccncc2)C1 (centres undefined) | 800 nM
CN1CCN(CCCNCc2ccccc2-c2cccc(CNCc3ccc4c(c3)OCO4)c2)CC1 | 793 nM

SMILES | XC50
Cc1ccc(-c2nn3c(O)c4c(nc3c2C)CCCC4)cc1 | 217 nM
CC1=C(C(=O)NC2CCC(CN3CCC(c4c[nH]c5ccccc45)CC3)CC2)Cc2ccccc21 (centres undefined) | 996 nM
COc1ccc(CCCc2nc(N)nc(N)c2-c2ccc(Cl)cc2)cc1 | 44.2 nM
COc1ccc(CCn2c(=N)c(C(=O)NCc3ccccc3)cc3c(=O)n4cccc(C)c4nc32)cc1 | 339 nM
O=C(/C=C/c1ccc(Cl)c(Cl)c1)N1CCC(CN2C3CCC2CC(c2c[nH]c4ccccc24)C3)CC1 (centres undefined) | 737 nM
Cc1cc(=NN=Cc2ccc(F)cc2)c2ccc(C(F)(F)F)cc2[nH]1 | 816 nM
O=C(c1ccc([N+](=O)[O-])o1)N1CCC(c2cn(Cc3cccc(F)c3)c3ccccc23)CC1 | 637 nM
Cc1cccc(-c2nn(-c3ccccc3)c3[nH]c(=O)c(CN4CCSCC4)cc23)c1 | 1010 nM
COc1ccc(CC(=O)NC(CCCN2CCC3(CC2)OCc2ccccc23)c2ccc(Cl)c(Cl)c2)cc1 (centres undefined) | 1130 nM
CCC(C)NS(=O)(=O)c1ccc2nc(Nc3ccc(C)c(Cl)c3)n([C@H](C)C(C)(C)C)c2c1 (some centres undefined) | 381 nM
Fc1cccc(COc2ccc(Nc3ncnc4ccc(-c5nnc(C(F)(F)F)o5)cc34)cc2Cl)c1 | 579 nM
C=C[C@]1(C)C[C@@H](OC(=O)CNC[C@@H](O)CN2C[C@H](c3ccnc4ccc(OC)nc34)OC2=O)[C@@]2(C)[C@@H]3C(=O)CC[C@@]3(CC[C@@H]2C)[C@@H](C)[C@@H]1O | 948 nM
Cc1cc(NC(=O)c2cccs2)ccc1OC1CCN(Cc2ccc(F)cc2)C1 (centres undefined) | 669 nM
COc1ccc(CNC(=O)NC2CCN(c3ccnc(Nc4ccc(F)cc4)n3)CC2)cc1 | 1050 nM
Cc1cnc(C(=O)Nc2ccc(-c3cccc(-c4nc5ccccc5[nH]4)c3)cc2)cn1 | 833 nM
O=C(NC1CC1)c1ccc(N2CCOc3ccc(Cl)cc32)s1 | 803 nM
O=C(Nc1ccc(C(=O)N2CCN(CCN3CCN(c4cccc(C(F)(F)F)c4)CC3)CC2)cc1)c1cc(Cl)cc(Cl)c1 | 827 nM
O=C(N[C@@H](Cc1ccccc1)C(=O)NCCN1CCOCC1)c1ccc(O)c(-c2ccc(Cl)c(Cl)c2)c1 | 921 nM
CN(Cc1ccc(C#N)cc1)C1CCN(c2cc(NC(=O)c3ccc(F)cc3)ccn2)CC1 | 1430 nM
COc1ccc2nccc(N3CCN(CCNCc4ccc5c(n4)NC(=O)CS5)CC3)c2c1 | 950 nM
CC(=O)c1c[nH]c(C(=O)Nc2ccc(-c3cn4ccccc4n3)cc2)c1 | 890 nM
CN(C)Cc1ccc(O)c(-c2ccc(C(C)(C)C)cc2)n1 | 1080 nM
N=C(N)NCCCCN(Cc1ccccc1)c1ccccc1 | 745 nM
COc1ccc(-c2cccc(CNC3CCN(C)CC3)c2)cc1S(=O)(=O)NCc1ccccc1 | 874 nM
CCNc1cc(C)nc(Nc2ccc(NC(=O)Cc3ccc(OC)cc3)cc2)n1 | 1380 nM

SMILES | XC50
COc1cccc(N(CCCN2C(=O)c3cccc4cccc(c34)C2=O)C(=O)c2ccccc2C)c1 | 795 nM
CN(C)CCCOc1cc(NC(=O)Nc2ccc(-c3ccncc3)c3ccccc23)ccc1I | 699 nM
Cc1ccc(-c2nnc(-c3ccc(C(=O)NC4CCN(Cc5ccc(C#N)cc5)CC4)cc3)o2)cc1Br | 852 nM
Fc1ccc(C=NNc2nc3ccccc3[nH]2)cc1 | 783 nM
Oc1cccc(-c2cnc3ccc(NCc4ccc(F)cc4)nn23)c1 | 1080 nM
O=C(CCc1nc2c(cnn2-c2ccccc2)c(=O)[nH]1)NC1CCSc2ccccc21 (centres undefined) | 1060 nM
O=C(N[C@@H](Cc1ccccc1)[C@H](O)CNCCC(F)(F)F)c1cccc(CCC2CC2)c1 | 1020 nM
CCCCCCN(C(=O)OCc1ccccc1)C1CCN(C(=O)OC(C)(C)C)CC1C(=O)OCC (centres undefined) | 366 nM
CC(=O)N1N=C(c2cccs2)Sc2c1nc(-c1ccc(Cl)cc1)n2C(C)=O | 736 nM
CC(=O)Nc1ccc(CN2CCC(N(C)c3cc(NC(=O)c4cccc(F)c4)ccn3)CC2)cc1 | 1380 nM
CCCN(Cc1nnc(-c2cccs2)o1)C(=O)C1COc2ccccc2O1 (centres undefined) | 850 nM
O=[N+]([O-])c1ccc(N2CCCN(C(=S)Nc3ccc(F)cc3Br)CC2)nc1 | 302 nM
COCC(C)n1c(C)cc(C(=O)CSc2nnc(Nc3ccccc3)s2)c1C (centres undefined) | 736 nM
NC1CCN(Cc2ccc(-c3ccc(-c4nc5cc(F)ccc5[nH]4)cc3)cc2)C1 (centres undefined) | 184 nM
Cc1cc(C2CCN(CCCCNC(=O)c3ccc(-c4ccc(C(F)(F)F)cc4)cc3)CC2)c(C)cc1OCCOC1CCCCO1 (centres undefined) | 785 nM
OC(CNCc1ccccc1)c1cc(OCc2ccccc2)cc(OCc2ccccc2)c1 (centres undefined) | 1000 nM
O=C(Cc1cccc(O)c1)Nc1ccc(-c2cccc(-c3nc4cc(C(F)(F)F)ccc4[nH]3)c2)cc1 | 983 nM
NC(=O)C1CCN(Cc2ccc(-c3ccc(-c4nc5cc(C(F)(F)F)ccc5[nH]4)cc3)cc2)CC1 | 680 nM
Cn1c(=O)c(-c2c(Cl)cccc2Cl)cc2cnc(Nc3ccc(N4CCOCC4)cc3)nc21 | 161 nM
CNC(=O)c1cc(S(=O)(=O)N2CCN(c3ccccn3)CC2)cs1 | 669 nM
CC(=O)c1cccc(NC(=O)C2c3ccccc3C(=O)N(CC(C)C)C2c2cccs2)c1 (centres undefined) | 590 nM
Nc1cccc(C=CC(=O)N=c2cc[nH]c3ccccc23)c1 | 1060 nM

Reference: ChEMBL document CHEMBL1157539, “Thousands of chemical starting points for antimalarial lead identification” (Nature, 2010)
